The results in this text go back to article PMC2628613 (Diabetes, 2009).

One assay relates to purified HLA-A2. The arrangement: species or system human. Particulars: >50, 20–50, <20% binding at 10^−6 mol/l = high, intermediate, low binders.
A further assay relates to PBMCs. The format is cell-based, human.

Turning to “Peptide 1–8: human preproinsulin leader sequence peptide, residues 1–8, MALWMRLL”, the “Binding to HLA-A2 (in words)” value with purified HLA-A2 was “no significant binding”.
Take ALWGPDPAAA [15–24]: in the assay with purified HLA-A2, the “Binding to HLA-A2 (in words)” value is listed as “high binders”. In addition, in the assay with PBMCs, the “Frequencies of recognition, C” value is 0/4; the “Frequencies of recognition, Control subjects” value (“Frequencies … Control subjects” below) was 0/6; the “Frequencies of recognition, D” value is reported as 0/2; the “Frequencies of recognition, L” value is 1/4. For the same substance, in the assay on PBMCs, the “Frequencies of recognition, Patients” value is on record as 8/17; the “Frequencies of recognition, R” value is 7/13; the “Recognized in % of patients” value is greater than 40%; the “Recognized in % of recent-onset patients” value is given as greater than 50%. In the assay with PBMCs, the “Responses (stimulation score), C” value is listed as 0 (0–0); the “Responses (stimulation score), Control subjects” value (“Responses … Control subjects” for short) is 0 (0–0); the “Responses (stimulation score), L” value is listed as 12.8 (2.4–32.2); the “Responses (stimulation score), Patients” value was 12.2 (0–52.8). Further, the “Responses (stimulation score), R” value in the assay on PBMCs is 8.7 (0–52.8).
In the case of RLLPLLALL [6–14], in the assay on purified HLA-A2, the “Binding to HLA-A2 (in words)” value is on record as “high binders”. Besides, in the assay on PBMCs, the “Frequencies of recognition, C” value was 0/4; the “Frequencies … Control subjects” value was 0/6; the “Frequencies of recognition, D” value is listed as 0/2; the “Frequencies of recognition, L” value is given as 1/4. Also, in the assay on PBMCs, the “Frequencies of recognition, Patients” value is given as 5/18; the “Frequencies of recognition, R” value is reported as 4/14; the “Responses (stimulation score), C” value is given as 4.7 (3.9–7.2); the “Responses … Control subjects” value is recorded as 4.7 (3.9–7.2). Besides, in the assay on PBMCs, the “Responses (stimulation score), L” value is on record as 28.9 (21.1–51.1); the “Responses (stimulation score), Patients” value is recorded as 30.6 (7.8–144); the “Responses (stimulation score), R” value is given as 30.6 (7.8–144).
As for “AAVDLSHFL [Nef 83–91, reference compound]”, in the assay on PBMCs, the “Frequencies … Control subjects” value is 0/4; the “Frequencies of recognition, Patients” value is reported as 0/12; the “Responses … Control subjects” value is 0 (0–5); the “Responses (stimulation score), Patients” value is listed as 3 (0–20).
For the substance “ELRSRYWAI [NP 380–388, reference compound]”, in the assay with PBMCs, the “Frequencies … Control subjects” value was 2/7; the “Frequencies of recognition, Patients” value is 7/13; the “Responses … Control subjects” value is listed as 5 (2–131); the “Responses (stimulation score), Patients” value is reported as 8 (0–119).
“EWRFDSRLA [Nef 182–189, reference compound]”: in the assay on PBMCs, the “Frequencies … Control subjects” value is 0/3; the “Frequencies of recognition, Patients” value is 0/8; the “Responses … Control subjects” value is recorded as 0 (0–0); the “Responses (stimulation score), Patients” value is on record as 1 (0–35).
For the substance RLLPLLALLAL [6–16], in the assay with purified HLA-A2, the “Binding to HLA-A2 (in words)” value is listed as “high binders”. Moreover, in the assay with PBMCs, the “Frequencies of recognition, C” value is on record as 0/8; the “Frequencies … Control subjects” value is reported as 0/12; the “Frequencies of recognition, D” value is listed as 0/4; the “Frequencies of recognition, L” value is reported as 2/4. For the same substance, in the assay with PBMCs, the “Frequencies of recognition, Patients” value is reported as 9/20; the “Frequencies of recognition, R” value was 7/16; the “Recognized in % of patients” value was greater than 40%; the “Recognized in % of recent-onset patients” value was “at least 30%”. For the same substance, in the assay with PBMCs, the “Responses (stimulation score), C” value is listed as 0 (0–9.5); the “Responses … Control subjects” value is 0 (0–9.5); the “Responses (stimulation score), D” value is given as 0 (0–0); the “Responses (stimulation score), L” value is 12.2 (10–54.5). Also, in the assay on PBMCs, the “Responses (stimulation score), Patients” value is on record as 7.3 (0–111.7) and the “Responses (stimulation score), R” value was 5 (0–111.7).
